# Reference: PubChem BioAssay AID1645848
# Conditions: buffer; pH 7.4; 6.0 h; 150.0 µM
row,SMILES,solubility kinetic [µg/mL]
1,COc1ccc(NC(=O)c2c(C)cccc2C)cc1[S+](=O)([O-])N(C)C,32.8
2,CSc1ccccc1-c1ccc(Nc2nc(-c3ccncc3)nc3ccccc23)cc1F,< 1
3,CC(C)(C)c1ccc(C(=O)Nc2cn3cc(-n4ccnc4)ccc3n2)cc1,< 1
4,Fc1ccc(N2CCCN(CC3[C@H]4CNC[C@@H]34)CC2)cc1 (stereo not given in full),> 43
5,COc1ccc(-c2cn[nH]c2-c2ccc(OC)cc2)cc1,4.26
6,CN(C)c1ccc(S(=O)(=O)N2CCCCC2)cc1NS(=O)(=O)c1ccc2ccccc2c1,2.05
7,Cc1ccc(-n2c(C)cc(C3=NNC(=NC4CC4)SC3)c2C)cc1C,2.55
8,O=C1CCCC2=C1C1(CCCC1)N=C(Nc1nc3cc(Br)ccc3o1)N2,< 1
9,Cc1ccc(S(=O)(=O)Nc2ccccc2C(=O)Nc2ccc(-c3ccccc3)cn2)cc1,< 1
10,CS(=O)(=O)c1ccc2nc(NC(=O)C3CC3)sc2c1,22.7
11,Cn1nnnc1Sc1ncnc2scc(-c3cc4ccccc4o3)c12,< 1
12,COc1cc(-c2nc(Nc3ccc(F)c(F)c3)c3ccccc3n2)ccn1,< 1
13,COc1ccc(-n2nc(C3CCCN(C(=O)c4ccccc4F)C3)[nH]c2=O)cc1 (stereo not given),37.3
14,Fc1ccc(CNc2cc3c(cn2)CN(Cc2ccncc2)CCN3)cc1,36.6
15,COc1ccc(OC)c(C(=O)Nc2nc(-c3ccccc3)cs2)c1,< 1
16,Cc1ccc(S(=O)(=O)Nc2cc(C(=O)Nc3nc(-c4ccccc4)cs3)ccc2Cl)cc1,< 1
17,COc1cc(=O)n2c(c1C(=O)N(C)Cc1cscn1)CCN(C(=O)c1ccc(C)cc1C)CC2,> 71
18,O=C(Nc1ncnc2sc3c(c12)CCC3)c1ccco1,11.5
19,CC(C)COc1ccc(-c2csc(N3CCC(C(N)=O)CC3)n2)cc1,2.68
20,COc1ccccc1CNc1ccc(N2CCCCC2)cc1,12.9

row,SMILES,solubility kinetic [µg/mL]
1,O=C(O)c1cccc(-c2cnc3ccccc3c2)c1,> 37
2,Cc1nn2c(c1-c1ccccc1-c1ccccc1)N(CC1CC1)CCC2,1.56
3,COc1ccc(O)c(CNc2ccc(S(=O)(=O)Nc3nccs3)cc2)c1,> 58
4,Cc1cc(C)nc(N2CCCC(C(=O)NCCc3ccc(F)cc3)C2)n1 (stereo not given),2.77
5,COC(=O)CNC(=O)c1nc(-c2ccc(Cl)cc2Cl)c2cnccn12,14.2
6,Fc1cc(Nc2nc(-c3ccncc3)nc3ccccc23)ccc1-c1ccnc(C(F)(F)F)c1,< 1
7,Fc1cc(Nc2nc(-c3ccncc3)nc3ccccc23)ccc1-c1ccncc1,< 1
8,CCN1CCN(c2ncc3c(n2)CCN(Cc2cc(Br)cs2)C3)CC1,37.1
9,O=C1Nc2ccccc2/C1=C\c1ccc([N+](=O)[O-])cc1,< 1
10,COc1ccc(-c2csc(CCn3nc(C)c4c(C(F)(F)F)cc(=O)[nH]c43)n2)cc1,< 1
11,COc1ccc(NC(=O)c2c(C)cccc2C)cc1S(=O)(=O)Nc1ccc(Br)cc1,< 1
12,Cc1ccc(S(=O)(=O)Nc2cnccc2C(=O)Nc2nc(-c3cc(Br)cs3)cs2)cc1,0.958
13,CC(=O)c1c(C)[nH]c(C(=O)Nc2cccc([S+](=O)([O-])Nc3ccc(C#N)cc3)c2)c1C,36.8
14,CNS(=O)(=O)c1cc(-c2nn3c(C)nnc3c3ccccc23)ccc1C,4.84
15,Cc1ccc(-c2ccc(CNc3nc(-c4ccccc4C(C)C)ncc3F)cc2)cn1,< 1
16,COc1cccc(CNC(=O)c2ccc(N3CCCC3)c(NC(=O)Nc3ccccc3F)c2)c1,< 1
17,O=C(CCCN1CCC2(CC1)C(=O)N(Cc1cccc(F)c1)CN2c1ccccc1)c1ccc(F)cc1,4.23
18,Cc1ccccc1C(=O)NC1CCN(c2ccc3nnc(C4CC4)n3n2)CC1,> 56
19,C[C@@H]1Cc2c([nH]c3cc(Cl)c(F)cc23)[C@]2(N1)C(=O)Nc1ccc(Cl)cc12,13.3
20,COc1ccc(C(=O)NC2CCN(c3cnn(CC4CC4)c(=O)c3)CC2)c(OC)n1,> 41
